Assay: gradient 5% acetonitrile 3 min, to 50% in 2 min, to 85% in 15 min, held 3 min, 100 µL/min
Settings: column: Zorbax Extend-C18 2.1 x 50 mm; eluents: water / acetonitrile, 0.1% formic acid
Outline: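 Using water and acetonitrile that each contained 0.1% formic acid, mixtures of ~100 pure standards were separated at 100 μL/min on a Zorbax Extend-C18 column (2.1 × 50 mm, 1.8 μm). The HPLC fed a quadrupole time-of-flight mass spectrometer working in positive and negative ionization mode, with dead and dwell volumes of 40 μL and 900 μL. Data were acquired over 3 months. Retention time was read from computationally picked adduct peaks after manual inspection of each.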

Row | SMILES | RP-LC retention time
1 | CCCNC(=O)c1ccc2c(c1)CCN2C(C)=O | 635 s
2 | COc1ccc(NC(=O)C2CCCN(c3nnc4ccc(Cl)cn34)C2)cc1OC (stereo unspecified) | 701 s
3 | N#Cc1cccc(NC(=O)N2CCC(c3cc(N)on3)CC2)c1 | 660 s
4 | CC1CCCCN1CCNC(=O)c1cc(S(=O)(=O)N2CCCC2)ccc1Cl (stereo unspecified) | 617 s
5 | Cc1cc(F)ccc1NS(=O)(=O)c1cc2n(c1)CCN(CC(C)C)C2=O | 828 s
6 | CC(NC(=O)c1ccc2c(c1)OCO2)C(=O)Nc1nc2ccccc2[nH]1 (stereo unspecified) | 623 s
7 | COCC(=O)NC(Cc1ccccc1)c1nnc(N2CCSCC2)o1 (stereo unspecified) | 721 s
8 | O=C(NCCn1c(=O)n(Cc2ccc(F)cc2)c2cccnc21)c1cnccn1 | 719 s
9 | O=C(CCCc1c[nH]c2ccccc12)NC1CCN(c2ccc(=O)[nH]n2)C1 (stereo unspecified) | 640 s
10 | COC(=O)c1cn(CC(=O)Nc2cc(Cl)ccc2OC)c2nc(C)ccc2c1=O | 780 s
11 | COc1ccc(OC)c(NC(=O)N(C)CCc2noc(COc3ccccc3F)n2)c1 | 932 s
12 | Cc1cc(C)c(S(=O)(=O)Nc2cc(-c3cn4ccccc4n3)ccc2C)cc1C | 737 s
13 | CCC(=O)N1N=C(c2cccs2)CC1c1cccs1 (stereo unspecified) | 880 s
14 | Cc1ccc(N2CC(c3noc(C4CCC4)n3)CC2=O)cc1 (stereo unspecified) | 914 s
15 | O=C(Nc1ccccc1OC(F)F)c1ccc(S(=O)(=O)N2CCOCC2)cc1 | 841 s
16 | O=C(CSCCc1ccccn1)Nc1c(F)c(F)c(F)c(F)c1F | 643 s
17 | O=S(=O)(c1c[nH]c2ncccc12)N1CCN(c2ccccc2)CC1 | 805 s
18 | CSc1ccc(-c2nc3ccc(Cl)cn3c2NC2CCCCC2)cc1 | 926 s
19 | COc1ccc(CNC(=O)C2CCN(c3nccnc3Sc3ccccc3)CC2)c(OC)c1 | 983 s
20 | CN(CC1CCCO1)S(=O)(=O)c1ccc(C(=O)Nc2ccc3sccc3c2)cc1 (stereo unspecified) | 891 s
21 | CN1C(=O)[C@]2(CO)SSC1(Cc1cn([C@]34C[C@@]56SS[C@@](CO)(C(=O)N5[C@H]3Nc3ccccc34)N(C)C6=O)c3ccccc13)C(=O)N2C | 898 s
22 | O=C(Nc1ccc(F)cc1)NC1CCN(c2ccc(F)cc2)C1=O (stereo unspecified) | 783 s

Row | SMILES | RP-LC retention time
23 | Cc1c(-c2noc(C(=O)NCCCN3CCCC(C)C3)n2)oc2ccccc12 (stereo unspecified) | 722 s
24 | COC(=O)c1ccc2c(=O)n(-c3ccc(OC)cc3)c(N3CCOCC3)nc2c1 | 896 s
25 | CCN1C(=O)c2cccnc2Sc2cc(NC(=O)c3c(F)cccc3F)ccc21 | 808 s
26 | CCOC(=O)c1ccc(NC(=O)c2ccccc2-c2ccccc2C(=O)O)cc1 | 842 s
27 | CC(=O)Nc1ccc(C(=O)NC2CCN(c3cc(-c4ccc(Cl)cc4)[nH]n3)C2)cc1 (stereo unspecified) | 675 s
28 | Cn1c(=O)sc2cc(S(=O)(=O)N3CCC(C(=O)N4CCc5ccccc5C4)CC3)ccc21 | 896 s
29 | Cc1ccc(-c2nnc(Cc3nc(-c4ccccc4F)no3)o2)cc1C | 1040 s
30 | N#Cc1ccc(C(=O)N2CCN3CCS(=O)(=O)N(C4CC4)C(=O)C3C2)cc1 (stereo unspecified) | 955 s
31 | O=C([C@@H]1C[C@H](Oc2cccnc2)CN1C(=O)c1ccc2ncccc2c1)N1CCCC1 | 544 s
32 | Cc1nnc(-c2nnc(N3CCC(C)CC3)c3ccccc23)o1 | 824 s
33 | Cc1cccc(NC(=O)N2CCc3c(c(-c4nc(C5CC5)no4)nn3C)C2)c1 | 854 s
34 | O=C(CSc1cc(-n2cccn2)ncn1)Nc1ccccc1Br | 965 s
35 | CCCn1c(CCNC(=O)c2ccc(C)cc2)nc2cccnc21 | 668 s
36 | COc1ccc(-c2noc(-c3cccn4c(=O)c5ccccc5nc34)n2)cc1OC | 994 s
37 | Cc1ccccc1C(=O)Nc1cc(-c2cccs2)no1 | 947 s
38 | O=C(Nc1ccc(Cl)cc1)N1CCN(CCn2cnc3cccnc32)CC1 | 604 s
39 | Cn1ccnc1SCC(=O)Nc1nc(-c2ccc(Cl)cc2)cs1 | 690 s
40 | Cc1cccc(CN2CCCn3nc(C(=O)NCCN4CCOCC4)cc3C2=O)c1 | 621 s
41 | Cc1cc(C)cc(NC(=O)N(C)CC2CCOC2)c1 (stereo unspecified) | 743 s
42 | CCN(C(=O)c1cccc(F)c1)c1nc(-c2ccccc2)cs1 | 1230 s
43 | Cc1c2cnn(-c3ccccc3)c(=O)c2c(C)n1C(C)C(=O)NCCCN1CCN(C)CC1 (stereo unspecified) | 581 s
44 | CN1C(=O)C(CC(=O)N2CCCCC2)Sc2ncccc21 (stereo unspecified) | 658 s

Results, then the compound that gave them:

Row | RP-LC retention time | SMILES
45 | 804 s | O=C(c1ccc(-c2ccc3c(c2)CCN3C(=O)Nc2ccc3c(c2)OCCO3)cc1)N1CCOCC1
46 | 1020 s | CN(C)c1ccc(C(=O)N2CCCC2c2nc(-c3ccc(F)cc3)no2)cc1 (stereo unspecified)
47 | 670 s | COc1ccc(NC(=O)N(C)CC2CCOCC2)c(C)c1
48 | 1050 s | Cc1ccc(C)c(N2CCN(C(=O)C3CCCN(c4ncnc5c4nc4n5CCCCC4)C3)CC2)c1 (stereo unspecified)
49 | 759 s | Cc1noc2ncn(CC(=O)Nc3c(F)c(F)cc(F)c3F)c(=O)c12
50 | 866 s | Cc1cc2c(cc1S(=O)(=O)N1CCCC1C(=O)Nc1ccc(F)c(Cl)c1)OC(C)C(=O)N2 (stereo unspecified)
51 | 929 s | Cc1cc(-c2nnc(-c3ccco3)o2)c(C)n1CC(=O)Nc1cc(F)cc(F)c1
52 | 596 s | CCN1CCN(CCNC(=O)C2CCCN(C(=O)c3[nH]c(C)c(C(=O)OC(C)C)c3C)C2)CC1 (stereo unspecified)
53 | 698 s | CSc1ccc(C(C(C(=O)c2ccco2)N2CCOCC2)N2CCOCC2)cc1 (stereo unspecified)
54 | 636 s | Cc1cc(N2CCN(C)CC2)nc2ccc(NC(=S)NCC3(c4ccccc4)CCCC3)cc12
55 | 745 s | O=C(NCC1CCN(S(=O)(=O)C2CC2)CC1)Oc1ccccc1
56 | 1040 s | Cc1nn(C)c2nc(OC(C)C(=O)NCc3cccs3)cc(-c3ccccc3)c12 (stereo unspecified)
57 | 763 s | CC(C)c1cc(=O)n2c(n1)SCC2CC(=O)Nc1cccc(F)c1 (stereo unspecified)
58 | 626 s | O=C(c1ccc(Br)cc1)N1CCN(C(=O)c2cc(-c3cccnc3)n[nH]2)CC1
59 | 784 s | O=C1Nc2ccccc2SC1C(=O)N1CCC(C(=O)N2CCN(c3ccccc3F)CC2)CC1 (stereo unspecified)
60 | 620 s | CCc1nc2c(=O)n(CC(=O)N3CCCC3)nc(C)c2s1
61 | 780 s | CC(=O)c1cccc(NC(=O)CN2C(=O)C3CCCCN3c3ccc(C(=O)N4CCCC4)cc32)c1 (stereo unspecified)
62 | 657 s | CC(C)(C)NC(=O)N1CCC(CNC(=O)c2ccsc2)CC1
63 | 952 s | COC(=O)c1cc(C)nc2c1c(=O)n(Cc1cccc(C#N)c1)c(=O)n2C
64 | 797 s | Cc1cc(=O)n(CC(=O)Nc2cccc(Cl)c2)c(N(C)Cc2ccccc2)n1
65 | 726 s | Cc1nnc2ccc(N3CCCC3)nn12
66 | 945 s | Cc1cccc(N2CCN(Cc3nc(-c4ccc(N5CCOCC5)nc4)no3)CC2)c1C
